Laboratory results taken from patent publication US20080233179A1, “TRANSDERMAL COMPOSITION HAVING ENHANCED COLOR STABILITY” (priority 2006, published 2008).
Structures can show the parent of a compound that is named as a salt.

Key:
[1] = levodopa taken alone; cited from earlier work
D3 receptors = D3 receptors (Homo sapiens, UniProt P35462); conditions: cited from earlier work
[2] = tested on: D2 subfamily of dopamine receptors; conditions: in vitro; cited from earlier work
[3] = three times a day, pramipexole dihydrochloride tablets (Wright et al. 1997); cited from earlier work
[4] = Lowest effective concentration of sodium metabisulfite on pramipexole color stability (Example 4); assay type: physicochemical; conditions: pramipexole hydrochloride 2.00% (FBE) hydro-alcoholic mixture at apparent pH around 8.0
Experimental: A formulation free of antioxidants served as a blank reference (Formulation F).
In parallel, samples stored at 40° C. in a climatic chamber (C-20/600, Climat Temperatur System, Hechingen, Germany) for 1 month were assessed for color as well. […] The formulation containing the lowest level of sodium metabisulfite (0.10% wt, formulation C) was ranked “BY2”. All the other formulations were colorless.

D3 receptors, sequence (P35462 whole entry): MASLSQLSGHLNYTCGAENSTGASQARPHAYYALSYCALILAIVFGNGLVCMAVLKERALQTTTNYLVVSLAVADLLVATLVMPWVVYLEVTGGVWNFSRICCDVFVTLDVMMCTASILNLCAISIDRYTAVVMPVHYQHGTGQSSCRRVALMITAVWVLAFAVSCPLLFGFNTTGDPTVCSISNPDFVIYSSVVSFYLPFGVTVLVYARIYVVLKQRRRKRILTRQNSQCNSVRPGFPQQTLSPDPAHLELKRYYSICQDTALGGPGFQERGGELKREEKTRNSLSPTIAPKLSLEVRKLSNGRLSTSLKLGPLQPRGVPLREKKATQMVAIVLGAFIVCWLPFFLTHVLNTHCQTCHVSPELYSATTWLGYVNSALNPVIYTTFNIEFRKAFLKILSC

N[C@@H](Cc1ccc(O)c(O)c1)C(=O)O [levodopa]
fraction of the drug broken down into dopamine before it reaches the brain [1]: about 95%

CCCN[C@H]1CCc2nc(N)sc2C1 [pramipexole, (S)-2-amino-4,5,6,7-tetrahydro-6-(propylamino)benzothiazole dihydrochloride monohydrate]
affinity for D3 receptors relative to D2 or D4 receptor subtypes (D3 receptors): higher affinity than to D2 or D4 receptor subtypes
intrinsic activity at the D2 subfamily of dopamine receptors [2]: full intrinsic activity
steady-state pharmacokinetic characteristics [3]: linear up to a daily dose of 4.5 mg

O=S([O-])S(=O)(=O)[O-].[Na+].[Na+] [sodium metabisulfite, Sodium metabisulfite]
minimal amount of sodium metabisulfite preventing color degradation [4]: 0.2 % wt
